Columns and labels:
[1] = system: human platelet; assay: Inhibition of ADP-induced human platelet aggregation; assay type: cell-based; details: aggregation induced by 2.5 μM ADP, mean of at least two determinations
Method: Such aggregated and activated platelets produce vasoactive substances such as thromboxane and serotonin that may cause harmful vasoconstriction and vascular remodeling.[13] […] This secondary assay was carried out as previously described,[14] with aggregation induced by 2.5 μM ADP in the presence or absence of IP receptor agonists.

[2] = Metabolite profile of 5c in the rat; assay type: in vivo; details: in vivo following dosing of 5g
Source text: A taurine-conjugated metabolite was subsequently identified in bile (M1, Figure 4), which was also observed in circulating plasma, although at much lower concentrations (∼5%) compared to parent. Further, two oxidized products, one of which was also a taurine-conjugate, were identified (M2 and M3) in plasma. […] It is known that taurine can be conjugated to bile acids and these conjugates may be hydrolyzed in the gut which allows for bile acid reabsorbtion.[19]

[3] = biological target: IP (Homo sapiens, UniProt P43119); assay: Radioligand binding, human IP ([3H]-iloprost); set-up: expressed in transfected cells; host or cells: CHO-K1 (crude membranes); details: cloned human receptor; read-out: Ki IP ([3H]-iloprost)
IP, sequence (P43119 whole entry): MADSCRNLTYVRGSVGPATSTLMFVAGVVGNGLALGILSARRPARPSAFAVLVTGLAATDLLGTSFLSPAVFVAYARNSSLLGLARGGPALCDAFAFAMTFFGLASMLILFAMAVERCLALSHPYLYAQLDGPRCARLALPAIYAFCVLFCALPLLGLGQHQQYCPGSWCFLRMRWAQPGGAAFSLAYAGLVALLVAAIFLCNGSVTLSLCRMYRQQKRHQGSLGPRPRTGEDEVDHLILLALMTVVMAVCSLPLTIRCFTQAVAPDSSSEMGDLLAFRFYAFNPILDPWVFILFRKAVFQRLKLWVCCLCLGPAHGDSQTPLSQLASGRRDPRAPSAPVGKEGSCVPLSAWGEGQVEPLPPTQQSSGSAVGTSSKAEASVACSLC
Method: CHO-K1 cells expressing recombinant IP receptors were harvested, washed with ice-cold phosphate buffered saline, pH 7.4 (PBS), and then centrifuged at 48 000g for 20 min at 4 °C. The resulting cell pellet was then resuspended in ice-cold PBS containing 20 mM HEPES, pH 7.4, and 0.1 mM EDTA, homogenized on ice using a Brinkman Polytron, and centrifuged (48 000g for 20 min at 4 °C). This resuspension and centrifugation process was repeated one further time. Crude membrane pellets were stored at −80 °C until used for radioligand binding assays.
Assay incubations were terminated by rapid filtration through PerkinElmer GF/C filtration plates pretreated with 0.3% PEI, under vacuum pressure using a 96-well Packard filtration apparatus, followed by multiple washes with ice-cold wash buffer (PBS containing 20 mM HEPES and 0.1 mM EDTA, pH 7.4). Plates were then dried at 45 °C for a minimum of 2 h. Finally, 25 μL of BetaScint scintillation cocktail was added to each well and plates were counted in a Packard TopCount scintillation counter. In each competition study, test compounds were dosed at 10 concentrations with triplicate determinations at each test concentration.

[4] = biological target: EP4 (Homo sapiens, UniProt P35408); assay: Radioligand binding, EP4 ([3H]-PGE2); set-up: purchased MDS Pharma (Taiwan) and CEREP (France), contract assays; details: cloned human receptor; mean of two determinations
EP4, sequence (P35408 whole entry): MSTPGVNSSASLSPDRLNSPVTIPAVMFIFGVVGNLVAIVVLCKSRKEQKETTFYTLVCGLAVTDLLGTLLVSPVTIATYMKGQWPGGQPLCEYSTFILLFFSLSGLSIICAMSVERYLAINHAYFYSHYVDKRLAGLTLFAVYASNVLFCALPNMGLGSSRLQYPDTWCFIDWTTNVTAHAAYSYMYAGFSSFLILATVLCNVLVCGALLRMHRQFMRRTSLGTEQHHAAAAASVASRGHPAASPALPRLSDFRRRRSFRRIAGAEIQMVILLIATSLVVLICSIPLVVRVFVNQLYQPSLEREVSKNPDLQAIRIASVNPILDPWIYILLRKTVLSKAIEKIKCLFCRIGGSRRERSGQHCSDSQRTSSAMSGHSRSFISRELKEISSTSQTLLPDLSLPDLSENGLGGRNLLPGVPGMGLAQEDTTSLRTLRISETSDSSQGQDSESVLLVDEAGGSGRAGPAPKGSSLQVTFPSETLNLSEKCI
Method: (§1) Additional (non-IP) receptor binding assays were carried out by MDS Pharma (Taiwan) and CEREP (France).

[5] = biological target: T1, EP1 (Homo sapiens, UniProt P34995); assay: Radioligand binding, EP1 ([3H]-PGE2); set-up: purchased MDS Pharma (Taiwan) and CEREP (France), contract assays; details: cloned human receptor; mean of two determinations
T1 sequence (P34995 1-402): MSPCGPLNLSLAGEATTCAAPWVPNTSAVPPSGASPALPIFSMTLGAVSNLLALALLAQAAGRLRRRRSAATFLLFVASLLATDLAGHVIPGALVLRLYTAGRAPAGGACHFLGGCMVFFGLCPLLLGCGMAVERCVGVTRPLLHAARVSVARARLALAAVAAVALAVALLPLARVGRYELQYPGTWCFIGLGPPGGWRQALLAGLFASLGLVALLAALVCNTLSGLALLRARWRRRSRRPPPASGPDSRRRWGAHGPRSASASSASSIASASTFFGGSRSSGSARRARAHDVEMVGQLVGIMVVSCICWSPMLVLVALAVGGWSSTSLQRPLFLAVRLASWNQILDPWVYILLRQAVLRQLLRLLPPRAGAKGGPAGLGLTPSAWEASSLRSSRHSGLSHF
Method: as §1

[6] = iv PK in bile-duct cannulated (BDC) versus normal rats; assay type: in vivo, rat; details: iv administration
Source text: One explanation for the prolonged exposure was the possibility of enterohepatic recirculation. […] A more definitive study was therefore conducted in bile-duct cannulated (BDC) rats.

Compound | IC50 [1] [nM] | taurine conjugate metabolite in vivo [2] | Ki [3] [nM] | Ki [4] [nM] | Ki [5] [nM] | reduction in the apparent plasma half-life in BDC rats ([6]; BDC versus normal rats) [fold] | concentrations in bile and urine compared to plasma ([6]; rat)
O=C(O)COC[C@H]1CC[C@H](COC(=O)N(c2ccccc2)c2cccc(F)c2)CC1 [5g, 2-(((1r,4r)-4-(((3-Fluorophenyl)(phenyl)carbamoyloxy)methyl)cyclohexyl)methoxy)acetic Acid] | 18 | no analogous conjugate was observed | 7 | 1200 | – | – | –
O=C(O)COC[C@H]1CC[C@H](COC(=O)N(c2ccccc2)c2ccc(Cl)cc2)CC1 [5c, Sodium 2-(((1r,4r)-4-(((4-Chlorophenyl)(phenyl)carbamoyloxy)methyl)cyclohexyl)methoxy)acetate] | – | – | – | – | 9600 | 3 | negligible

Source: paper PMC11602115 (Journal of Medicinal Chemistry, 2017)
